Measured values published in patent publication US6737383B1, “Herbicidal oxadiazolidines” (priority 1999, dated 2004).

Experiments:
bedstraw = assay: Test B pre/postemergence bedstraw; format: in vivo, Galium aparine
Outline: (§1)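 Test chemicals in a non-phytotoxic solvent mixture with surfactant were sprayed preemergence onto planted seeds and postemergence onto plants 2 to 18 cm tall (1- to 4-leaf stage). After twelve to sixteen days in a greenhouse, injury was visually rated against untreated controls from 0 (no effect) to 10 (complete control).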

blackgrass = assay: Test B pre/postemergence blackgrass; format: in vivo, Alopecurus myosuroides
Outline: as §1

surinam grass = assay: Test B pre/postemergence surinam grass; format: in vivo, Brachiaria decumbens
Outline: as §1

cocklebur = assay: Test B pre/postemergence cocklebur; format: in vivo, Xanthium strumarium
Outline: as §1

corn = assay: Test B pre/postemergence corn; format: in vivo, Zea mays
Outline: as §1

crabgrass = assay: Test B pre/postemergence crabgrass; format: in vivo, Digitaria sanguinalis
Outline: as §1

giant foxtail = assay: Test B pre/postemergence giant foxtail; format: in vivo, Setaria faberii
Outline: as §1

morningglory = assay: Test B pre/postemergence morningglory; format: in vivo, Ipomoea hederacea
Outline: as §1

pigweed = assay: Test B pre/postemergence pigweed; format: in vivo, Amaranthus retroflexus
Outline: as §1

rape = assay: Test B pre/postemergence rape; format: in vivo, Brassica napus
Outline: as §1

soybean = assay: Test B pre/postemergence soybean; format: in vivo, Glycine max
Outline: as §1

sugar beet = assay: Test B pre/postemergence sugar beet; format: in vivo, Beta vulgaris
Outline: as §1

velvetleaf = assay: Test B pre/postemergence velvetleaf; format: in vivo, Abutilon theophrasti
Outline: as §1

wheat = assay: Test B pre/postemergence wheat; format: in vivo, Triticum aestivum
Outline: as §1

wild oat = assay: Test B pre/postemergence wild oat; format: in vivo, Avena fatua
Outline: as §1

purple nutsedge = assay: Test B pre/postemergence purple nutsedge; format: in vivo, Cyperus rotundus
Outline: as §1

[1] = Postemergence, Rate 62 g/ha, scale 0 to 10, 0 is no effect, 10 is complete control
[2] = Preemergence, Rate 125 g/ha, scale of 0 to 10 where 0 is no effect and 10 is complete control
[3] = Preemergence, Rate 250 g/ha, scale 0 (no effect) to 10 (complete control)
[4] = Rate 62 g/ha, Preemergence, scale 0 to 10
[5] = Rate 250 g/ha, Postemergence, scale 0 to 10, 0 is no effect, 10 is complete control
[6] = Rate 500 g/ha, Postemergence, scale 0 to 10, 0 is no effect, 10 is complete control
[7] = Postemergence, Rate 125 g/ha, scale of 0 to 10 where 0 is no effect and 10 is complete control
[8] = Preemergence, Rate 62 g/ha, scale of 0 to 10 where 0 is no effect and 10 is complete control
[9] = Rate 500 g/ha, Preemergence, scale 0 to 10 (0 no effect, 10 complete control)
[10] = Preemergence, Rate 250 g/ha, scale 0 to 10 (0 no effect, 10 complete control)
[11] = Preemergence, Rate 500 g/ha, scale of 0 to 10 where 0 is no effect and 10 is complete control

SMILES: CC(C)N(C(=O)n1oc(=O)n(CCCCl)c1=O)c1ccccc1 [Compound 750]
- Plant response rating, Bedstraw (bedstraw; [1]): 5
- Plant response rating, Bedstraw (bedstraw; [2]): 0
- Bedstraw plant response rating (bedstraw; [3]): 0
- Bedstraw plant response rating (bedstraw; [4]): 0
- Bedstraw plant response rating (bedstraw; [5]): 7
- Bedstraw plant response rating (bedstraw; [6]): 10
- Plant response rating, Blackgrass (blackgrass; [1]): 4
- Blackgrass plant response rating (blackgrass; [7]): 7
- Plant response rating, Blackgrass (blackgrass; [2]): 8
- Blackgrass plant response rating (blackgrass; [3]): 8
- Blackgrass plant response rating (blackgrass; [4]): 7
- Blackgrass plant response rating (blackgrass; [5]): 7
- Blackgrass plant response rating (blackgrass; [6]): 8
- Plant response rating, B. signalgrass (surinam grass; [1]): 0
- B. signalgrass plant response rating (surinam grass; [7]): 2
- B. signalgrass plant response rating (surinam grass; [8]): 5
- Plant response rating, B. signalgrass (surinam grass; [2]): 10
- B. signalgrass plant response rating (surinam grass; [3]): 8
- B. signalgrass plant response rating (surinam grass; [5]): 6
- B. signalgrass plant response rating (surinam grass; [6]): 6
- Plant response rating, Cocklebur (cocklebur; [1]): 0
- Cocklebur plant response rating (cocklebur; [7]): 0
- Plant response rating, Cocklebur (cocklebur; [2]): 0
- Cocklebur plant response rating (cocklebur; [3]): 0
- Cocklebur plant response rating (cocklebur; [4]): 0
- Cocklebur plant response rating (cocklebur; [5]): 1
- Cocklebur plant response rating (cocklebur; [6]): 3
- Cocklebur plant response rating (cocklebur; [9]): 0
- Plant response rating, Corn (corn; [1]): 0
- Corn plant response rating (corn; [7]): 0
- Plant response rating, Corn (corn; [2]): 3
- Corn plant response rating (corn; [4]): 0
- Corn plant response rating (corn; [5]): 0
- Corn plant response rating (corn; [6]): 5
- Corn plant response rating (corn; [9]): 6
- Plant response rating, Crabgrass (crabgrass; [1]): 7
- Crabgrass plant response rating (crabgrass; [7]): 9
- Plant response rating, Crabgrass (crabgrass; [2]): 9
- Crabgrass plant response rating (crabgrass; [3]): 9
- Crabgrass plant response rating (crabgrass; [4]): 9
- Crabgrass plant response rating (crabgrass; [5]): 9
- Crabgrass plant response rating (crabgrass; [9]): 10
- Plant response rating, Giant foxtail (giant foxtail; [1]): 9
- Giant foxtail plant response rating (giant foxtail; [7]): 8
- Plant response rating, Giant foxtail (giant foxtail; [2]): 10
- Giant foxtail plant response rating (giant foxtail; [3]): 10
- Giant foxtail plant response rating (giant foxtail; [4]): 9
- Giant foxtail plant response rating (giant foxtail; [5]): 8
- Giant foxtail plant response rating (giant foxtail; [6]): 8
- Giant foxtail plant response rating (giant foxtail; [9]): 10
- Plant response rating, Morningglory (morningglory; [1]): 3
- Morningglory plant response rating (morningglory; [7]): 3
- Plant response rating, Morningglory (morningglory; [2]): 0
- Morningglory plant response rating (morningglory; [3]): 6
- Morningglory plant response rating (morningglory; [4]): 0
- Morningglory plant response rating (morningglory; [5]): 8
- Morningglory plant response rating (morningglory; [6]): 10
- Morningglory plant response rating (morningglory; [9]): 6
- Plant response rating, Redroot pigweed (pigweed; [1]): 4
- Redroot pigweed plant response rating (pigweed; [7]): 7
- Plant response rating, Redroot pigweed (pigweed; [2]): 9
- Redroot pigweed plant response rating (pigweed; [3]): 10
- Redroot pigweed plant response rating (pigweed; [4]): 7
- Redroot pigweed plant response rating (pigweed; [5]): 7
- Redroot pigweed plant response rating (pigweed; [6]): 7
- Plant response rating, Rape (rape; [1]): 0
- Rape plant response rating (rape; [7]): 4
- Plant response rating, Rape (rape; [2]): 0
- Rape plant response rating (rape; [3]): 8
- Rape plant response rating (rape; [4]): 0
- Rape plant response rating (rape; [5]): 6
- Rape plant response rating (rape; [6]): 7
- Plant response rating, Soybean (soybean; [1]): 2
- Soybean plant response rating (soybean; [7]): 6
- Plant response rating, Soybean (soybean; [2]): 0
- Soybean plant response rating (soybean; [3]): 5
- Soybean plant response rating (soybean; [4]): 0
- Soybean plant response rating (soybean; [5]): 7
- Soybean plant response rating (soybean; [6]): 7
- Soybean plant response rating (soybean; [9]): 5
- Plant response rating, Sugarbeets (sugar beet; [1]): 0
- Sugarbeets plant response rating (sugar beet; [7]): 3
- Plant response rating, Sugarbeets (sugar beet; [2]): 3
- Sugarbeets plant response rating (sugar beet; [3]): 5
- Sugarbeets plant response rating (sugar beet; [4]): 1
- Sugarbeets plant response rating (sugar beet; [5]): 3
- Sugarbeets plant response rating (sugar beet; [6]): 6
- Plant response rating, Velvetleaf (velvetleaf; [1]): 0
- Velvetleaf plant response rating (velvetleaf; [7]): 3
- Plant response rating, Velvetleaf (velvetleaf; [2]): 0
- Velvetleaf plant response rating (velvetleaf; [3]): 7
- Velvetleaf plant response rating (velvetleaf; [4]): 0
- Velvetleaf plant response rating (velvetleaf; [5]): 5
- Velvetleaf plant response rating (velvetleaf; [6]): 6
- Velvetleaf plant response rating (velvetleaf; [9]): 7
- Plant response rating, Wheat (wheat; [1]): 0
- Wheat plant response rating (wheat; [7]): 0
- Plant response rating, Wheat (wheat; [2]): 4
- Wheat plant response rating (wheat; [3]): 5
- Wheat plant response rating (wheat; [4]): 2
- Wheat plant response rating (wheat; [5]): 2
- Wheat plant response rating (wheat; [6]): 2
- Plant response rating, Wild oats (wild oat; [1]): 0
- Wild oats plant response rating (wild oat; [7]): 0
- Plant response rating, Wild oats (wild oat; [2]): 5
- Wild oats plant response rating (wild oat; [3]): 7
- Wild oats plant response rating (wild oat; [4]): 0
- Wild oats plant response rating (wild oat; [5]): 0
- Wild oats plant response rating (wild oat; [6]): 0
- Plant response rating, Nutsedge (purple nutsedge; [1]): 0
- Nutsedge plant response rating (purple nutsedge; [7]): 0
- Plant response rating, Nutsedge (purple nutsedge; [2]): 0
- Nutsedge plant response rating (purple nutsedge; [3]): 7
- Nutsedge plant response rating (purple nutsedge; [4]): 0
- Nutsedge plant response rating (purple nutsedge; [5]): 7
- Nutsedge plant response rating (purple nutsedge; [9]): 9

SMILES: CCn1ncc(Cn2c(=O)on(C(=O)N(c3ccccc3)C(C)C)c2=O)c1Cl [Compound 683]
- Bedstraw plant response rating (bedstraw; [8]): 0
- Plant response rating, Bedstraw (bedstraw; [2]): 0
- Plant response rating, Bedstraw (bedstraw; [10]): 0
- Plant response rating, Bedstraw (bedstraw; [11]): 0
- Blackgrass plant response rating (blackgrass; [8]): 1
- Plant response rating, Blackgrass (blackgrass; [2]): 3
- Plant response rating, Blackgrass (blackgrass; [10]): 7
- Plant response rating, Blackgrass (blackgrass; [11]): 9
- B. signalgrass plant response rating (surinam grass; [8]): 0
- Plant response rating, B. signalgrass (surinam grass; [2]): 0
- Plant response rating, B. signalgrass (surinam grass; [10]): 4
- Plant response rating, B. signalgrass (surinam grass; [11]): 9
- Cocklebur plant response rating (cocklebur; [8]): 0
- Plant response rating, Cocklebur (cocklebur; [2]): 0
- Plant response rating, Cocklebur (cocklebur; [10]): 0
- Plant response rating, Cocklebur (cocklebur; [11]): 0
- Corn plant response rating (corn; [8]): 0
- Plant response rating, Corn (corn; [2]): 0
- Plant response rating, Corn (corn; [10]): 0
- Plant response rating, Corn (corn; [11]): 3
- Crabgrass plant response rating (crabgrass; [8]): 6
- Plant response rating, Crabgrass (crabgrass; [2]): 8
- Plant response rating, Crabgrass (crabgrass; [10]): 9
- Plant response rating, Crabgrass (crabgrass; [11]): 10
- Giant foxtail plant response rating (giant foxtail; [8]): 8
- Plant response rating, Giant foxtail (giant foxtail; [2]): 9
- Plant response rating, Giant foxtail (giant foxtail; [11]): 10
- Morningglory plant response rating (morningglory; [8]): 0
- Plant response rating, Morningglory (morningglory; [2]): 0
- Plant response rating, Morningglory (morningglory; [11]): 2
- Redroot pigweed plant response rating (pigweed; [8]): 0
- Plant response rating, Redroot pigweed (pigweed; [2]): 2
- Plant response rating, Redroot pigweed (pigweed; [11]): 6
- Rape plant response rating (rape; [8]): 0
- Plant response rating, Rape (rape; [2]): 0
- Plant response rating, Rape (rape; [11]): 0
- Soybean plant response rating (soybean; [8]): 0
- Plant response rating, Soybean (soybean; [2]): 0
- Plant response rating, Soybean (soybean; [11]): 0
- Sugarbeets plant response rating (sugar beet; [8]): 0
- Plant response rating, Sugarbeets (sugar beet; [2]): 0
- Plant response rating, Sugarbeets (sugar beet; [11]): 0
- Velvetleaf plant response rating (velvetleaf; [8]): 0
- Plant response rating, Velvetleaf (velvetleaf; [2]): 0
- Plant response rating, Velvetleaf (velvetleaf; [11]): 0
- Wheat plant response rating (wheat; [8]): 0
- Plant response rating, Wheat (wheat; [2]): 0
- Plant response rating, Wheat (wheat; [11]): 0
- Wild oats plant response rating (wild oat; [8]): 0
- Plant response rating, Wild oats (wild oat; [2]): 0
- Plant response rating, Wild oats (wild oat; [11]): 8
- Nutsedge plant response rating (purple nutsedge; [8]): 0
- Plant response rating, Nutsedge (purple nutsedge; [2]): 0
- Plant response rating, Nutsedge (purple nutsedge; [11]): 0
